Measurements as given in BindingDB's records for patent US20250011332 (Soter Biopharma, 2025).

Tests used:
[1] = target: Tyrosine-protein kinase JAK1 (Homo sapiens, UniProt P23458); experiment: Jak1 Kinase Activity Test In Vitro
Experimental: JAK1(h) was incubated with 20 mM Tris/HCl pH 7.5, 0.2 mM EDTA, 500 μM MGEEPLYWSFPAKKK (SEQ ID NO: 1), 10 mM magnesium acetate and [γ-33P]-ATP (activity and concentration were determined as required). The reaction was started by adding the Mg/ATP mixture, and after incubation at room temperature for 40 min, the reaction was terminated by adding 0.5% phosphoric acid. Then 10 μL of the reaction product was spotted on a P30 filter pad which was washed three times with 0.425% phosphoric acid and once with methanol within 4 min, dried, and subjected to scintillation counting.

[2] = target: Non-receptor tyrosine-protein kinase TYK2 (Homo sapiens, UniProt P29597); experiment: TYK2 Kinase Activity Test In Vitro
Experimental: (§1) TYK2(h) was incubated with 8 mM MOPS pH 7.0, 0.2 mM EDTA, 250 μM GGMEDIYFEFMGGKKK (SEQ ID NO: 4), 10 mM magnesium acetate, and [γ-33P]-ATP (activity and concentration were determined as required). The reaction was started by adding the Mg/ATP mixture, and after incubation at room temperature for 40 min, the reaction was terminated by adding 0.5% phosphoric acid. Then 10 μL of the reaction product was spotted on a P30 filter pad which was washed three times with 0.425% phosphoric acid and once with methanol within 4 min, dried, and subjected to scintillation counting.

[3] = target: T1, Tyrosine-protein kinase JAK3 (Homo sapiens, UniProt P52333); experiment: Jak3 Kinase Activity Test In Vitro
T1 sequence (P52333 whole entry): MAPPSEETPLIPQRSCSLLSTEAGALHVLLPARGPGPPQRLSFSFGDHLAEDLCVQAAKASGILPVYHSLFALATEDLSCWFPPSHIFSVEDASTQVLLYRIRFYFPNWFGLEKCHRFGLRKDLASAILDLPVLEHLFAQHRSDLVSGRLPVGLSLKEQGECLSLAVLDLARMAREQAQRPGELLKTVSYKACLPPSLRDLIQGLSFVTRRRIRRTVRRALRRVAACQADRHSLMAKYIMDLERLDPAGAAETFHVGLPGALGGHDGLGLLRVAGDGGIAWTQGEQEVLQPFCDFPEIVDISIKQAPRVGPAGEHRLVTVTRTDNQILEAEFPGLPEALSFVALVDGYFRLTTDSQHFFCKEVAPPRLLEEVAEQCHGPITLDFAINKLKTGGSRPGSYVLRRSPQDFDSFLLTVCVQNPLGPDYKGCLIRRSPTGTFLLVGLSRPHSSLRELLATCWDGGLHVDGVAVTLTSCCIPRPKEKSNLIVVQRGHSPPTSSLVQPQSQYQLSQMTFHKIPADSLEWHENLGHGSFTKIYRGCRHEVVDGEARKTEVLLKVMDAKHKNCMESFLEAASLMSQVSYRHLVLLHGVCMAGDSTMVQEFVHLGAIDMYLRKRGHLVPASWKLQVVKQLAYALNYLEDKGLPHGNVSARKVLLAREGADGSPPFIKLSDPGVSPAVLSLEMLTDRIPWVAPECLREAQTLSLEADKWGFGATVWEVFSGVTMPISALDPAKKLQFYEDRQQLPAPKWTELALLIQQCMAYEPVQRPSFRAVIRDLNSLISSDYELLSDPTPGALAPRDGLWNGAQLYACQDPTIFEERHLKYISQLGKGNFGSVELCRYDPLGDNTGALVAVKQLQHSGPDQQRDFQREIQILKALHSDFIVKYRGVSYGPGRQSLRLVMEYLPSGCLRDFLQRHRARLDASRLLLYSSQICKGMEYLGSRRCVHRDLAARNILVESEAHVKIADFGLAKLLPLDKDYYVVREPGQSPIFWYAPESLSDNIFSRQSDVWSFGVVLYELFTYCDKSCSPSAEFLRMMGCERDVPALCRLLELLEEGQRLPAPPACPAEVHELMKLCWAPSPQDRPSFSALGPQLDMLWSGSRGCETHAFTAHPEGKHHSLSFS
Experimental: as §1, with “JAK3(h)” for “TYK2(h)”, “500” for “250”, “GGEEEEYFELVKKKK” for “GGMEDIYFEFMGGKKK”, “3),” for “4),”

[4] = target: Tyrosine-protein kinase JAK2 (Homo sapiens, UniProt O60674); experiment: Jak2 Kinase Activity Test In Vitro
Experimental: as §1, with “JAK2(h)” for “TYK2(h)”, “100” for “250”, “GGMEDIYFEFMGGKKK” left out, “2),” for “4),”

Chain of Tyrosine-protein kinase JAK2 (O60674 whole entry): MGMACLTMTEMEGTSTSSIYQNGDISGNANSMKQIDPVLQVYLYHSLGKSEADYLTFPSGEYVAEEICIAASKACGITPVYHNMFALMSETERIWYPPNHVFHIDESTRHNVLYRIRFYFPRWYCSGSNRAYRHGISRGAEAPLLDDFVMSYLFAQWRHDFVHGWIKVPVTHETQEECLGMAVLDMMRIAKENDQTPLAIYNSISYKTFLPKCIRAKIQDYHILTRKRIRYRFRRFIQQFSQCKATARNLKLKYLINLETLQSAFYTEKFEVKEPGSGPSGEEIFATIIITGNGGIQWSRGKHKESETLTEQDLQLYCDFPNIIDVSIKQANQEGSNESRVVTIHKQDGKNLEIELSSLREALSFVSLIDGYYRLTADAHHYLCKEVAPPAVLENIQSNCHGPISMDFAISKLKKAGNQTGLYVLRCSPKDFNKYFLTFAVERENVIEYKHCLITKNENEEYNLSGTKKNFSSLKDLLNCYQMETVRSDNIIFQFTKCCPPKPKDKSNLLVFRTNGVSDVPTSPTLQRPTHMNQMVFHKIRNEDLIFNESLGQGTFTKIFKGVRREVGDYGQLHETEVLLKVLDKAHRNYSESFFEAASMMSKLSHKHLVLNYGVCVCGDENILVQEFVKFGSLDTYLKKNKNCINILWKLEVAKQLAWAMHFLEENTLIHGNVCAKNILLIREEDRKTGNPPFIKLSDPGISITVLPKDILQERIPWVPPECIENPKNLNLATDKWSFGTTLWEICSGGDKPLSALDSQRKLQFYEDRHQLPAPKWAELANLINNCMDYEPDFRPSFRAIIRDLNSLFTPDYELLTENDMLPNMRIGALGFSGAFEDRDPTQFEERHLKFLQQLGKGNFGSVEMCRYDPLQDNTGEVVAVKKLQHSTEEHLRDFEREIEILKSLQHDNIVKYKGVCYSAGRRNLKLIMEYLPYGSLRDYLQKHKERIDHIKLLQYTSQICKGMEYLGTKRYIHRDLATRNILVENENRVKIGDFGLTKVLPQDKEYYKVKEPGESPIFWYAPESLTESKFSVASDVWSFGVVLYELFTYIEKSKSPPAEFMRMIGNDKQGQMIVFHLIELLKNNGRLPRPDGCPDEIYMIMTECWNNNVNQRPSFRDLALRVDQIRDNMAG
Chain of Tyrosine-protein kinase JAK1 (P23458 whole entry): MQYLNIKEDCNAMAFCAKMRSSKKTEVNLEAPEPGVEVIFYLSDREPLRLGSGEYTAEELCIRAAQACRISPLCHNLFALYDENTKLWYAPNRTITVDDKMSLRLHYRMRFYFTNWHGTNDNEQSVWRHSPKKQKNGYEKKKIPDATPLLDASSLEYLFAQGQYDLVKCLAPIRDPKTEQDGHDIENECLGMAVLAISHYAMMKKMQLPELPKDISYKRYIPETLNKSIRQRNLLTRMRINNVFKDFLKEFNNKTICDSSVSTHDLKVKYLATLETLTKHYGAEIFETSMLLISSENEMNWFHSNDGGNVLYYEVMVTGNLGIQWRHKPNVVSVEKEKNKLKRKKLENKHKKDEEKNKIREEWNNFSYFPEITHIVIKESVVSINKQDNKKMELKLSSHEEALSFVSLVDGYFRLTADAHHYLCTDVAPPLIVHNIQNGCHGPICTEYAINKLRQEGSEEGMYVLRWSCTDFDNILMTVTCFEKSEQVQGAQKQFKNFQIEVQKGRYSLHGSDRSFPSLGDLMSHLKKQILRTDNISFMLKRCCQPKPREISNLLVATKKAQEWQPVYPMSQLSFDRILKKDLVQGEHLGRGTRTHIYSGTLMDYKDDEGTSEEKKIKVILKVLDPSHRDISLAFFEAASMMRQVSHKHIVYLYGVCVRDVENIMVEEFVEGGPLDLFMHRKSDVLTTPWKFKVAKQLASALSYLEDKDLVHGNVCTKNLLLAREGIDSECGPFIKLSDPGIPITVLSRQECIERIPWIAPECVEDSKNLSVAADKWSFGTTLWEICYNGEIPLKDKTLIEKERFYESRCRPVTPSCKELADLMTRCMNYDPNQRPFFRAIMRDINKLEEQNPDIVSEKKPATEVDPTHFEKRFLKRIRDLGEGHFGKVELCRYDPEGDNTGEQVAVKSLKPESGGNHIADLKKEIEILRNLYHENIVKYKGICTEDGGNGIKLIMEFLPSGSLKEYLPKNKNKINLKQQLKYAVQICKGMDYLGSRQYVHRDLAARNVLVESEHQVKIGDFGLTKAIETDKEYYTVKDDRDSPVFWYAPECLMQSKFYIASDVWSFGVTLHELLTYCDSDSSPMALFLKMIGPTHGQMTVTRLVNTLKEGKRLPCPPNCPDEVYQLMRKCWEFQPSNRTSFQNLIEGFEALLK
Chain of Non-receptor tyrosine-protein kinase TYK2 (P29597 whole entry): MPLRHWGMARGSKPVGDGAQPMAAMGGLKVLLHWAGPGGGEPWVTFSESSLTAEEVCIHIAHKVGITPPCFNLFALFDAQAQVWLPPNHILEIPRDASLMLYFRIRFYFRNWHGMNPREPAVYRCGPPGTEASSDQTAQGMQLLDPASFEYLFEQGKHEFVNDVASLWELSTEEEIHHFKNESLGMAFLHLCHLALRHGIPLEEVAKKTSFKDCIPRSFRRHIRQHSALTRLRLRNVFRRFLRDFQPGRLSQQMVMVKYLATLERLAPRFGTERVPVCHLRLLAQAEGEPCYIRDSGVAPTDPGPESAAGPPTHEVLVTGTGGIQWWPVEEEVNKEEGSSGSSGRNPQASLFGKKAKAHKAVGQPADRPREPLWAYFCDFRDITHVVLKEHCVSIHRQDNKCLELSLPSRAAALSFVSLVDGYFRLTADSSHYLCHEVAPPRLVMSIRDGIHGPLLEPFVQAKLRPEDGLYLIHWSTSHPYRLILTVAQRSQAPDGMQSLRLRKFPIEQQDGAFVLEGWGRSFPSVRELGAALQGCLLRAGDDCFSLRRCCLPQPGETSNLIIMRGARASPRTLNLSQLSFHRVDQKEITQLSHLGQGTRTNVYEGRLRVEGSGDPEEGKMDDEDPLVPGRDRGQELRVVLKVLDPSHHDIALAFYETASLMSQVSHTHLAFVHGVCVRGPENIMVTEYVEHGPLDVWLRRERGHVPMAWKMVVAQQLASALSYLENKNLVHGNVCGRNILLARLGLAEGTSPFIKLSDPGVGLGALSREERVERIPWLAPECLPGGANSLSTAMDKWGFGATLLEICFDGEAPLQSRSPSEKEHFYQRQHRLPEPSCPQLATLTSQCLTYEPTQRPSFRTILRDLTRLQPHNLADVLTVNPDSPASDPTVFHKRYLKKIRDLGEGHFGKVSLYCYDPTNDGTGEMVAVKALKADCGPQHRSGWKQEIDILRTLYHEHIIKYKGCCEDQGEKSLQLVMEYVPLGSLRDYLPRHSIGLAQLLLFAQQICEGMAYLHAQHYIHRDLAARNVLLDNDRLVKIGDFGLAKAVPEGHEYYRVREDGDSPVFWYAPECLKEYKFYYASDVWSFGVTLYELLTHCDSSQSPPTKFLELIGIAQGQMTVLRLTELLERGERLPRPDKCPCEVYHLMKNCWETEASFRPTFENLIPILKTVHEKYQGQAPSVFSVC

SMILES	IC50 [1]	IC50 [2]	IC50 [3]	IC50 [4]
Cn1cc(-c2cn3nccc3c(-c3cnn([C@]4(CC#N)CC5(C[C@@H](C#N)C5)C4)c3)n2)cn1 (some centres undefined) [US20250011332, Compound 2]	123 nM	2 nM	480 nM	
Cn1cc(-c2cn3nccc3c(-c3cnn([C@]4(CC#N)CC5(C[C@@H](C#N)C5)C4)c3)n2)cn1 (some centres undefined) [US20250011332, Compound 4]		20 nM		
Cn1ccc(-c2cn3nccc3c(-c3cnn(C4(CC#N)CC5(CCN(C#N)C5)C4)c3)n2)n1 (centres undefined) [US20250011332, Compound 10]	281 nM	30 nM	≥ 10000 nM	33 nM
Cn1ccc(-c2cn3nccc3c(-c3cnn([C@]4(CC#N)CC5(CC[C@@H](C#N)CC5)C4)c3)n2)n1 (some centres undefined) [US20250011332, Compound 12]	122 nM	6 nM	7740 nM	138 nM
Cn1ccc(-c2cn3nccc3c(-c3cnn([C@]4(CC#N)CC5(CC[C@@H](C#N)CC5)C4)c3)n2)n1 (some centres undefined) [US20250011332, Compound 13]	233 nM	10 nM	1080 nM	103 nM
Cn1cc(-c2cc(-c3cnn([C@]4(CC#N)CC5(C[C@H](C#N)C5)C4)c3)c3ccnn3c2)cn1 (some centres undefined) [US20250011332, Compound 17]	229 nM		> 1000 nM	28 nM
Cn1ncc(-c2cn3nccc3c(-c3cnn([C@]4(CC#N)CC5(C[C@H](C#N)C5)C4)c3)n2)c1N (some centres undefined) [US20250011332, Compound 18]	12 nM		93 nM	3 nM
Cn1ncc(-c2cn3nccc3c(-c3cnn([C@]4(CC#N)CC5(C[C@H](C#N)C5)C4)c3)n2)c1N (some centres undefined) [US20250011332, Compound 19]	42 nM	2 nM	670 nM	6 nM
N#CC[C@]1(n2cc(-c3nc(-c4cc(N)[nH]n4)cn4nccc34)cn2)CC2(C[C@@H](C#N)C2)C1 (some centres undefined) [US20250011332, Compound 20]	14 nM	1 nM	480 nM	
